Measurements: the supplement of paper PMC10307832

Columns and labels:
Assay in all cases: relative viability (nuclei count vs DMSO), 5 days (fraction); higher = more cells survive
[1] = test system: LCLC-97TM1
In short: (§1)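 Cells from lung cancer lines were seeded into 1536-well plates and, one day later, dosed by pin tool. Treatments were either a single drug or a fixed dose of an anchor drug with five library-drug doses (not always all listed) in √10 steps. After 5 days, nuclei were stained in a one-step fixation (final 0.05% Triton X-100, 1% formaldehyde, 1 ug/ml Hoechst) and counted on 4× images, and relative viability is the treated-to-vehicle nuclei ratio, as the median of duplicate plates.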

[2] = test system: NCI-H661
In short: as §1

[3] = test system: NCI-H23
In short: as §1

[4] = test system: NCI-H2347
In short: as §1

[5] = test system: COR-L 105
In short: as §1

[6] = test system: PC-14
In short: as §1

[7] = test system: HCC-827
In short: as §1

[8] = test system: NCI-H520
In short: as §1

[9] = test system: RERF-LC-KJ
In short: as §1

[10] = test system: H3255
In short: as §1

[11] = test system: NCI-H1666
In short: as §1

[12] = test system: NCI-H2126
In short: as §1

[13] = test system: NCI-H650
In short: as §1

[14] = test system: NCI-H2405
In short: as §1

[15] = test system: ChaGo-K-1
In short: as §1

[16] = test system: 201T
In short: as §1

[17] = test system: NCI-H322M
In short: as §1

[18] = test system: NCI-H647
In short: as §1

[19] = test system: NCI-H2087
In short: as §1

[20] = test system: NCI-H1915
In short: as §1

[21] = test system: LC-2-ad
In short: as §1

[22] = test system: EPLC-272H
In short: as §1

C=C1C(=O)O[C@@H](CCCCCCCC)[C@@H]1C(=O)O [C-75] + CCNC(=O)c1noc(-c2cc(C(C)C)c(O)cc2O)c1-c1ccc(CN2CCOCC2)cc1 [Luminespib] (partner 0.01 µM)
relative viability ([1]; first compound 0.08 µM): 0.731
relative viability ([1]; first compound 0.253 µM): 0.808
relative viability ([1]; first compound 0.8 µM): 0.852
relative viability ([1]; first compound 2.53 µM): 0.452
relative viability ([1]; first compound 8 µM): 0.801
relative viability ([2]; first compound 0.08 µM): 0.946
relative viability ([2]; first compound 0.253 µM): 0.905
relative viability ([2]; first compound 0.8 µM): 0.899
relative viability ([2]; first compound 2.53 µM): 0.869
relative viability ([2]; first compound 8 µM): 0.84
relative viability ([3]; first compound 0.08 µM): 0.246
relative viability ([3]; first compound 0.253 µM): 0.206
relative viability ([3]; first compound 0.8 µM): 0.198
relative viability ([3]; first compound 2.53 µM): 0.222
relative viability ([3]; first compound 8 µM): 0.209
relative viability ([4]; first compound 0.08 µM): 0.409
relative viability ([4]; first compound 0.253 µM): 0.474
relative viability ([4]; first compound 0.8 µM): 0.294
relative viability ([4]; first compound 8 µM): 0.446
relative viability ([5]; first compound 0.08 µM): 0.688
relative viability ([5]; first compound 0.253 µM): 0.584
relative viability ([5]; first compound 0.8 µM): 0.817
relative viability ([5]; first compound 2.53 µM): 0.815
relative viability ([5]; first compound 8 µM): 0.638
relative viability ([6]; first compound 0.08 µM): 0.158
relative viability ([6]; first compound 0.253 µM): 0.171
relative viability ([6]; first compound 0.8 µM): 0.151
relative viability ([6]; first compound 2.53 µM): 0.142
relative viability ([6]; first compound 8 µM): 0.152
relative viability ([7]; first compound 0.08 µM): 0.519
relative viability ([7]; first compound 0.253 µM): 0.703
relative viability ([7]; first compound 0.8 µM): 0.825
relative viability ([7]; first compound 2.53 µM): 0.42
relative viability ([7]; first compound 8 µM): 0.566
relative viability ([8]; first compound 0.08 µM): 0.233
relative viability ([8]; first compound 0.253 µM): 0.214
relative viability ([8]; first compound 0.8 µM): 0.217
relative viability ([8]; first compound 2.53 µM): 0.208
relative viability ([8]; first compound 8 µM): 0.331
relative viability ([9]; first compound 0.08 µM): 1.31
relative viability ([9]; first compound 0.253 µM): 1.22
relative viability ([9]; first compound 0.8 µM): 1.23
relative viability ([9]; first compound 2.53 µM): 1.08
relative viability ([9]; first compound 8 µM): 1.11
relative viability ([10]; first compound 0.08 µM): 0.935
relative viability ([10]; first compound 0.253 µM): 1.02
relative viability ([10]; first compound 0.8 µM): 0.794
relative viability ([10]; first compound 2.53 µM): 0.723
relative viability ([10]; first compound 8 µM): 0.977
relative viability ([11]; first compound 0.08 µM): 0.961
relative viability ([11]; first compound 0.253 µM): 1.04
relative viability ([11]; first compound 0.8 µM): 1
relative viability ([11]; first compound 2.53 µM): 0.934
relative viability ([11]; first compound 8 µM): 0.827
relative viability ([12]; first compound 0.08 µM): 0.931
relative viability ([12]; first compound 0.253 µM): 0.977
relative viability ([12]; first compound 0.8 µM): 0.804
relative viability ([12]; first compound 2.53 µM): 0.815
relative viability ([12]; first compound 8 µM): 0.872
relative viability ([13]; first compound 0.08 µM): 0.685
relative viability ([13]; first compound 0.253 µM): 0.737
relative viability ([13]; first compound 0.8 µM): 0.818
relative viability ([13]; first compound 2.53 µM): 0.684
relative viability ([13]; first compound 8 µM): 0.788
relative viability ([14]; first compound 0.08 µM): 0.822
relative viability ([14]; first compound 0.253 µM): 0.478
relative viability ([14]; first compound 0.8 µM): 0.716
relative viability ([14]; first compound 2.53 µM): 0.558
relative viability ([14]; first compound 8 µM): 0.869
relative viability ([15]; first compound 0.08 µM): 0.524
relative viability ([15]; first compound 0.253 µM): 0.587
relative viability ([15]; first compound 0.8 µM): 0.598
relative viability ([15]; first compound 2.53 µM): 0.638
relative viability ([15]; first compound 8 µM): 0.478
relative viability ([16]; first compound 0.08 µM): 1.07
relative viability ([16]; first compound 0.253 µM): 1.08
relative viability ([16]; first compound 0.8 µM): 1.07
relative viability ([16]; first compound 2.53 µM): 1.04
relative viability ([16]; first compound 8 µM): 1.06
relative viability ([17]; first compound 0.08 µM): 0.928
relative viability ([17]; first compound 0.253 µM): 1.24
relative viability ([17]; first compound 0.8 µM): 0.816
relative viability ([17]; first compound 2.53 µM): 0.879
relative viability ([17]; first compound 8 µM): 0.829
relative viability ([18]; first compound 0.08 µM): 0.114
relative viability ([18]; first compound 0.253 µM): 0.256
relative viability ([18]; first compound 0.8 µM): 0.183
relative viability ([18]; first compound 2.53 µM): 0.117
relative viability ([18]; first compound 8 µM): 0.13
relative viability ([19]; first compound 0.08 µM): 0.162
relative viability ([19]; first compound 0.253 µM): 0.218
relative viability ([19]; first compound 0.8 µM): 0.141
relative viability ([19]; first compound 2.53 µM): 0.166
relative viability ([19]; first compound 8 µM): 0.217
relative viability ([20]; first compound 0.08 µM): 0.694
relative viability ([20]; first compound 0.253 µM): 0.768
relative viability ([20]; first compound 0.8 µM): 0.798
relative viability ([20]; first compound 2.53 µM): 0.717
relative viability ([20]; first compound 8 µM): 0.677
relative viability ([21]; first compound 0.08 µM): 1.06
relative viability ([21]; first compound 0.253 µM): 0.801
relative viability ([21]; first compound 0.8 µM): 0.95
relative viability ([21]; first compound 2.53 µM): 0.797
relative viability ([21]; first compound 8 µM): 0.91
relative viability ([22]; first compound 0.08 µM): 0.302
relative viability ([22]; first compound 0.253 µM): 0.308
relative viability ([22]; first compound 0.8 µM): 0.297
relative viability ([22]; first compound 2.53 µM): 0.202
relative viability ([22]; first compound 8 µM): 0.159
